Article PMC7618597, “Dual Nurr1/RXR agonism of valerenic acid and synthetic mimetics enables dimer-selective Nurr1 modulation” (ACS medicinal chemistry letters, 2025)

Assays:
[1] = tested on: rat dopaminergic neuronal cells (N27); test: Nurr1-regulated gene expression (qPCR) in N27 cells; assay type: cell-based
Description: Nurr1 is a key factor of neuroprotection and health of dopaminergic neurons. Therefore, we explored the impact of 2 (10 μM) and 3 (1 μM) on gene expression in rat dopaminergic neuronal cells (N27), which have been widely used to study Nurr1 agonists[17],[18],[38],[39]. Both compounds were non-toxic at the test concentrations in a multiplex toxicity assay (Figure S5). […] Modulation of Nurr1 LBD homodimerization and heterodimerization of the LDBs of Nurr1 and RXRα was investigated by HTRF as reported previously4. Nurr1 LBD or RXRα LBD proteins labeled with sGFP were titrated against a fixed concentration of Tb3+-cryptate as streptavidin conjugate ([…], Revvity) coupled to biotinylated Nurr1 LBD protein in the presence of test compounds at 30 μM or absence of compound as a negative control (apo). Assay solutions were prepared in buffer containing 25 mM HEPES pH 7.5, 150 mM KF, 5% (m/v) glycerol, 5 mM DTT, 0.1% (m/v) CHAPS and 1% DMSO. The FRET donor complex was formed from biotinylated Nurr1 LBD (final concentration 0.188 nM) and Tb-SA (0.375 nM) and was kept constant. For the homodimerization assay, the FRET acceptor consisted of sGFP-Nurr1 LBD, which was titrated from 0.5 μM, while free sGFP was added to keep the total GFP content stable at 0.5 μM. For the heterodimerization assay, the FRET acceptor sGFP-RXRα LBD was titrated from 6 μM, while free sGFP was added to keep a constant concentration of GFP at 6 μM. Samples were equilibrated at room temperature for 2 h and fluorescence intensities (FI) after excitation at 340 nm were recorded at 520 nm for sGFP acceptor fluorescence and at 620 for Tb-SA donor fluorescence on a SPARK plate reader (Tecan Group Ltd.). FI520 was divided by FI620 and multiplied by 10,000 to give a dimensionless HTRF signal. For dose-response curve fitting, the equation “[Agonist] versus response-variable slope (four parameters)” was used in GraphPad Prism ( version 9.5.1, GraphPad Software, La Jolla, CA). Evaluation of Nurr1-regulated gene expression. N27 rat dopaminergic neural cells (SCC048, Sigma-Aldrich, Darmstadt, Germany) were cultured in RPMI 1640 medium (Gibco, Thermo Fisher Scientific, Waltham, MA, USA) supplemented with 10% FCS, penicillin (100 U/mL), and streptomycin (100 μg/mL) at 37 °C and 5% and seeded in 12-well plates (3×10^5 cells/well). […] RNA concentration and purity were assessed using a NanoDrop One UV-vis spectrophotometer (Thermo Fisher Scientific) at 260/280 nm. […]

Chemical stability = assay type: physicochemical; details: compared to 2

Question: With `Cc1c2c(n(-c3ccc(CC(=O)O)cc3)c1C)CCC(F)(F)C2` [compound 2] as the compound, how does the “mRNA expression of TH, FLRT2, BDNF, CRMP4” value ([1]; 10 μM) read?
Answer: robustly upregulated

Question: What about the “mRNA expression of XIAP, SESN3, CCND2, BIRC5, SOD2” value ([1]; 10 μM) of the same compound?
Answer: not induced

Question: What does the source list for `Cc1c(C)n(-c2ccc(CC(=O)O)cc2)c2ccc(F)cc12` [compound 3]?
Answer: mRNA expression of TH, FLRT2, BDNF, CRMP4 ([1]; 1 μM): robustly upregulated; mRNA expression of XIAP, SESN3, CCND2, BIRC5, SOD2 ([1]; 1 μM): not induced; chemical stability (Chemical stability): improved chemical stability
